Measured values as given in ChEMBL document CHEMBL5727760, “Pyrrolidine derivatives” (2020).

Each compound was assayed against Cathepsin S (Homo sapiens, UniProt P25774) (assay: Enzyme Inhibition Assay: Enzyme activity is measured by observing the increase in fluorescence intensity caused by cleavage of a peptide substrate containing a fluorophore whose emission is quenched in the intact peptide.Assay buffer: 100 mM potassium phosphate pH 6.5, EDTA-Na 5 mM, Triton X-100 0.001%, DTT 5 mM.Enzymes (all at 1 nM): human and mouse Cathepsin S, Cat K, Cat B, Cat L.Substrate (20 μM): Z-Val-Val-Arg-AMC, except for Cat K which uses Z-Leu-Arg-AMC (both from Bachem).Z=Benzyloxycarbonyl.AMC=7-Amino-4-Methyl-Coumarin.DTT=dithiothreitol.Final volume: 100 μL.Excitation 360 nm, Emission 465 nm.Enzyme is added to the substance dilutions in 96-well microtitre plates and the reaction is started with substrate.).
Cathepsin S, sequence (P25774 whole entry): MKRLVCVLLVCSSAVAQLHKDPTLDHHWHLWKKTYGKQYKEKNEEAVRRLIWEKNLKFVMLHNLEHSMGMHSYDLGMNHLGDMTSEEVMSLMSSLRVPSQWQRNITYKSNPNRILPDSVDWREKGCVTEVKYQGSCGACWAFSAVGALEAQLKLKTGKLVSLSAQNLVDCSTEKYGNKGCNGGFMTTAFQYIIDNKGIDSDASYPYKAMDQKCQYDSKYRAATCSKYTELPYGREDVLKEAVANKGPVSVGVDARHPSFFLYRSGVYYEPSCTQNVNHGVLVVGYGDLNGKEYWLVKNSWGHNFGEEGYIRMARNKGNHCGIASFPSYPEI

| IC50 | Compound |
| --- | --- |
| 0.625 nM | N#CC1(NC(=O)[C@@H]2C[C@@H](S(=O)(=O)c3ccc(-n4cnc(Cl)n4)cc3C(F)(F)F)CN2C(=O)C2(C(F)(F)F)CC2)CC1 |
| 0.752 nM | N#CC1(NC(=O)[C@@H]2C[C@@H](S(=O)(=O)c3ccc(-n4cc(C(F)(F)F)cn4)cc3C(F)(F)F)CN2C(=O)C2(C(F)(F)F)CC2)CC1 |
| 0.349 nM | Cc1nnnn1-c1ccc(S(=O)(=O)[C@@H]2C[C@@H](C(=O)NC3(C#N)CC3)N(C(=O)C3(C(F)(F)F)CC3)C2)c(C(F)(F)F)c1 |
| 0.584 nM | N#CC1(NC(=O)[C@@H]2C[C@@H](S(=O)(=O)c3ccc(-n4cnnn4)cc3C(F)(F)F)CN2C(=O)C2(C(F)(F)F)CC2)CC1 |
| 0.391 nM | N#CC1(NC(=O)[C@@H]2C[C@@H](S(=O)(=O)c3ccc(-n4cncn4)cc3C(F)(F)F)CN2C(=O)C2(C(F)(F)F)CC2)CC1 |
| 0.506 nM | N#CC1(NC(=O)[C@@H]2C[C@@H](S(=O)(=O)c3ccc(-n4nccn4)cc3C(F)(F)F)CN2C(=O)C2(C(F)(F)F)CC2)CC1 |
